In patent US20230130103A1, “TARGETED PHARMACOLOGICAL THERAPEUTICS IN UVEAL MELANOMA” (Washington University, priority 2017, published 2023):

What was measured:
[1] = tested on: 92.1 cells; assay: Immunoblot of histone H3 lysine 27 trimethylation (PRC2 inhibition); format: cell-based, Human; conditions: 7 d GSK503, FIG. 7G
Experimental: (§1) Gαq-mutant 92.1 UM cells were treated with FR or vehicle, and RNA was collected 1 and 3 d after treatment for RNA-Seq analysis. FIG. 7A Unsupervised principal component analysis identified FR treatment and time in culture as the two main separable factors contributing to changes in gene expression. […] FIG. 7D FR-repressed genes identified as targets of the polycomb repressive complex 2 by Geneset enrichment analysis. FIG. 7E The Ezh1/2 inhibitor GSK503 blocks the morphological differentiation elicited by FR. 92.1 UM cells were treated 7 d with GSK503 and 3 d with FR and then imaged by phase contrast microscopy. […] 92.1 cells were treated 7 d with GSK503 and 3 d with FR and pelleted. FIG. 7G PRC2 inhibition by GSK503.
For standard immunoblots, cells were lysed and cleared in radioimmunoprecipitation assay buffer (150 mM sodium chloride, 1% Triton-X100, 0.5% sodium deoxycholate, 0.1% sodium dodecyl sulfate, 50 mM Tris, pH 8.0) with 1×Complete Protease Inhibitor (Roche, cat.11697498001). Histones were isolated from cells using the Active Motif Histone Purification Mini Kit (cat.40026, Active Motif, Carlsbad, Calif.). Lysates were resolved on 15% SDS-PAGE gels and transferred to Immobilon(P) PVDF membrane (Milipore, cat.IPVH00010). […] Following incubation, membranes were washed at least three times with TBST and signals were detected using LI-COR Odyssey model 9120 imaging system (LI-COR). […]

[2] = tested on: 92.1 cells; assay: Melanocytic re-differentiation (morphology, pigmentation, immunostaining); format: cell-based, Human; conditions: 7 d GSK503 and 3 d FR
Experimental: FIG. 5A Morphological changes elicited by FR. UM cell lines were treated 3 d with FR and imaged by phase contrast microscopy. FR caused UM cells driven by constitutively active Gαq (92.1 and Mel202) to lose their characteristic spindle shaped and assume a stellate shape with multiple projections. FR had no effect on BRAF-driven UM cells (OCM-1A). FIG. 5B Melanocytic differentiation of FR-treated UM cells indicated by pigmentation. UM cell lines were treated 3 d with FR. Cells were pelleted and examined macroscopically. […] Scale bar=50 μm.
as §1
Cell fixation was carried out by adding an equal volume of 2×fixative (PBS with 4% paraformaldehyde and 0.4% glutaraldehyde) to UM cells in RPMI growth medium. After 15 min at 37° C., cells were permeabilized with 0.1% Triton X-100 in PBS for 5 min, washed with PBS, and blocked with 2% fish gelatin (Sigma-Aldrich) in PBS. Primary and secondary antibodies were diluted in 2% fish gelatin in PBS. Primary antibodies included mouse monoclonal anti-pre-melanosomal protein (One World Lab, San Diego, Calif.), rabbit polyclonal anti-tyrosinase (One World Lab), rabbit polyclonal anti-dopachrome tautomerase (One World Lab), rabbit polyclonal anti-S100 (DakoCytomation, Denmark), and mouse monoclonal anti-BrdU (Life Technologies). Secondary antibodies were Alexa-fluor conjugates (Life Technologies), and the mounting agent was ProLong Gold (Life Technologies). Cell morphology was assessed by phase contrast imaging with an inverted microscope (Olympus IX72) using a 10×objective.

## Cc1cc(C)c(CNC(=O)c2cc(-c3ccc(N4CCN(C)CC4)nc3)cc3c2c(C)cn3C(C)C)c(=O)[nH]1 [GSK503, reference compound]
[1]
  histone H3 lysine 27 trimethylation (immunoblot): reduced histone H3 lysine 27 trimethylation
[2]; FIG. 7E
  FR-induced re-differentiation (morphology): blocked the ability of FR to re-differentiate these cells
[2]; FIG. 7F
  pigmentation of FR-treated cells: decreased pigmentation
